From patent US6893829B2, “Human leukocyte 12-lipoxygenase and its role in the pathogenesis of disease states” (City of Hope, priority 1992, dated 2005)

System: leukocyte 12-LO mRNA in HSMC
Assay: 12-LO mRNA expression in HSMC (RT-PCR)
Type: cell-based, human
Conditions: AII 10^−7 mol/L
From the text: FIGS. 5A and 5B illustrate the regulation of leukocyte 12-LO mRNA levels by AII in HSMC using RT-PCR. FIG. 5A is the autoradiogram of the blot hybridized with 12-LO oligonucleotide probe. FIG. 5B is etidium bromide stained agarose gel. […] RNA samples were amplified for 40 cycles with leukocyte 12-LO primers or GAPDH primers.
Total RNA from cultured HSMC, HAEC and fresh MO was extracted with guanidiumthiocyanate-phenol-chloroform using RNAzol (Cinna/Biotecx Laboratories International Inc., Texas). Some RNA samples were treated by RNAse-free DNAse. 3 microgram of total RNA was mixed with the PCR buffer (10 mmol/L Tris-HCl, pH 8.3, 50 mmol/L KCl, 1.5 mmol/L MgCl2, and 0.001% gelatin), 200 μmol/L of each of the four deoxynucleotide triphosphates, 25 pmol each of 5′- and 3′-primers, 2 U Avian Myeloblastosis Virus reverse transcriptase (20 U/μl; Life Sciences, St. Petersburg, Fla.), and 2.5 U Taq polymerase (Perkin Elmer Cetus, Norwalk, Conn.) in a final vol of 50 μl. In some reactions, 5 pmol of each 5′- and 3′-primer of β2 macroglobulin or GAPDH were added as an internal standard. The samples were placed in a thermal cycler at 37° C. for eight minutes for the RT reaction to proceed. Then conditions used for PCR were a denaturation step at 94° C. for one-minute, annealing at 50° C. for two minutes, and extension at 72° C. for two minutes for 20-40 cycles. Blank reactions with no RNA template were carried out through the RT and PCR steps. […]
20 μl aliquots of the PCR products were subjected to electrophoresis in a 1.8% agarose gel in Tris acetate-EDTA buffer. […] Blots were quantitated using a computerized video densitometer.
In order to evaluate the specific expression and regulation of 12-LO mRNA in HSMC, applicants used a RT-PCR assay that exclusively amplifies the leucocyte type of 12-LO. […] When PCR conditions were used that were specific for either the platelet type 12-LO or human 15-LO no specific RNA band was detected (data not shown). […]

Angiotensin II (DRVYIHPF; Angiotensin-2; UniProt P01019 25-32, looked up) [AII, peptide hormone, added to cells as stimulus]
incubation time at which 12-LO mRNA induction starts: 12 h
incubation time of maximum 12-LO mRNA induction: 36 h
leukocyte type 12-LO mRNA expression (serum deprived HSMC): markedly upregulated
